*1 amine or outer side, *2 acyl side, *3 side chain or, on linkers, in order; H or OH if unused. Where a SMILES comes first, the peptide text is derived from it. Bridges are numbered along the chain shown (N, C = ends). [ ]: non-standard residue; d: D form. Diglycolyl = O=C(COCC(=O)[*:2])[*:1]; Cba = N[C@@H](CC1CCC1)C(=O)O; Nle = CCCC[C@H](N)C(=O)O
Target: T1, MDM2 (Homo sapiens, UniProt Q00987)
T1 construct: made in house
Assay: Surface plasmon resonance (SPR) against captured GST-MDM2
Type: binding
Details: for koff / kon: SPR Biacore T200, 25 °C, PBS-P+, GST-MDM2 captured via anti-GST antibody on CM5 chip, 2-fold dilutions 250 nM to 3.91 nM, association 250 s, dissociation 400 s
Protocol: SPR experiments were performed on a Biacore T200 instrument (GE Healthcare) at 25 °C in PBS-P+ buffer (10× stock; Cytiva Life Sciences #28995084). One mL PP 96-well plates (Greiner #780201) were used for dilution directly in the plates. Anti-GST antibody (Cytiva #27457701) was chemically immobilized on a CM5 series S sensor chip (Cytiva Life Sciences #29149604) by EDC/NHS-mediated coupling. For this, an amine coupling kit (Cytiva Life Sciences #BR100633) and the recommended protocol were followed with the following specifications: 20 μg/mL of antibody diluted in 10 mM NaAc pH 5.0 buffer flowed over both flow channels for 600 s (flow rate 10 μL min^–1).
Kinetic measurements consisted of ligand capture of GST-MDM2 (200 nM, 350 s injection, flow rate 10 μL min^–1, stabilization 60 s), followed by injections (association, 250 s; dissociation, 400 s; flow rate, 30 μL min^–1) of decreasing concentrations of compounds (2-fold cascade dilutions from the starting concentration). The chip was regenerated between cycles by one injection of regeneration solution (10 mM glycine-HCl at pH 1.5) for 10 s at a flow rate of 30 μL min^–1, followed by a 120 s stabilization period. Binding was measured as resonance units over time after blank subtraction, and the data were interpreted using Biacore T200 software (version 3.2). The KD values were calculated based on steady-state affinity (1:1 binding). […]
5. Surface Plasmon Resonance Results […]
dotted lines representing the fittings from which the kinetic values are calculated. The compounds […]
shown in Figure 6 are tested at 250 nM (highest concentration) with a 2-fold dilution series until 3.91 nM (lowest concentration).
SPR Curves of compounds 4.1 and 4.4
4.1: Concentrations tested: 125 nM to 3.91 nM (2-fold dilutions) – KD: ND
Supplementary Figure 4. SPR curve of compound 4.1 against MDM2

T1 sequence (Q00987 whole entry, species assumed): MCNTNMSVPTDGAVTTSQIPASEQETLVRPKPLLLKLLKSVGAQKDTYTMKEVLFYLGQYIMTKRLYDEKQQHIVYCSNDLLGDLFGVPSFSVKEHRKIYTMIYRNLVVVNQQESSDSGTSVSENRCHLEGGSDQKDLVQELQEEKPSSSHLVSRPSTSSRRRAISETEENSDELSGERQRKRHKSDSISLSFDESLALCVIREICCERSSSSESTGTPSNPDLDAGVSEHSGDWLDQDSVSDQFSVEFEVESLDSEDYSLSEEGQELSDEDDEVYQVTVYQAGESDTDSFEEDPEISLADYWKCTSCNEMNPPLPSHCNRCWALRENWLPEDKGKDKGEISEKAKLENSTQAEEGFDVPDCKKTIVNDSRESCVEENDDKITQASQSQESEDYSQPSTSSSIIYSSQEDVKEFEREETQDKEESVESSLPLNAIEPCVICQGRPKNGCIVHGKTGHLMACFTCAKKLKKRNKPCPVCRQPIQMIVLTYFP

Row | Compound | koff | kon | loss of binding (linear peptide without PNA versus PNA-constrained 1.1, 30 versus 0.7 nM)
1 | CCCC[C@H](NC(=O)[C@H](CC(C)C)NC(=O)[C@H](CCC(N)=O)NC(=O)[C@H](C)NC(=O)[C@H](Cc1c[nH]c2ccccc12)NC(=O)[C@H](Cc1ccc(O)cc1)NC(=O)[C@H](CCC(N)=O)NC(=O)[C@H](CCCC)NC(=O)[C@H](Cc1ccc(F)c(F)c1)NC(=O)[C@@H](NC(=O)[C@H](CC(C)C)NC(=O)CNC(=O)CN(CCNC(=O)CN(CCNC(=O)CN(CCNC(=O)CN(CCNC(=O)[C@H](CCCNC(=N)N)NC(=O)COCCOCCNC(=O)[C@H](CCCNC(=N)N)NC(=O)CN(CCNC(=O)CN(CCNC(=O)CN(CCNC(=O)CN(CCNC(=O)CN(CCNC(=O)CN(CCNC(=O)CN(CCNC(=O)CN(CCNC(=O)[C@H](CCCNC(=N)N)NC(C)=O)C(=O)Cn1cnc2c(=O)[nH]c(N)nc21)C(=O)Cn1ccc(N)nc1=O)C(=O)Cn1ccc(N)nc1=O)C(=O)Cn1cnc2c(=O)[nH]c(N)nc21)C(=O)Cn1cc(C)c(=O)[nH]c1=O)C(=O)Cn1cnc2c(N)ncnc21)C(=O)Cn1cnc2c(=O)[nH]c(N)nc21)C(=O)Cn1cnc2c(=O)[nH]c(N)nc21)C(=O)Cn1ccc(N)nc1=O)C(=O)Cn1ccc(N)nc1=O)C(=O)Cn1cc(C)c(=O)[nH]c1=O)C(=O)Cn1cnc2c(N)ncnc21)[C@@H](C)O)C(=O)N[C@@H](CO)C(=O)NCC(=O)NCCN(CC(=O)NCCN(CC(=O)NCCN(CC(=O)NCCN(CC(=O)N[C@@H](CCCNC(=N)N)C(N)=O)C(=O)Cn1ccc(N)nc1=O)C(=O)Cn1cnc2c(=O)[nH]c(N)nc21)C(=O)Cn1cnc2c(=O)[nH]c(N)nc21)C(=O)Cn1ccc(N)nc1=O [2.2 (PNA)] | 0.0029 s⁻¹ | 830000 M⁻¹ s⁻¹ | –
2 | CCCC[C@@H]1NC(=O)[C@H](CC2CCC2)NC(=O)[C@H](CCC(N)=O)NC(=O)[C@H](C)NC(=O)[C@H](Cc2c[nH]c3ccccc23)NC(=O)[C@H](Cc2ccc(O)cc2)NC(=O)[C@H](CCC(N)=O)NC(=O)[C@H](CCCC)NC(=O)[C@H](Cc2ccccc2)NC(=O)[C@H]([C@@H](C)O)NC(=O)[C@H](CC(C)C)NC(=O)CNC(=O)COCC(=O)NCCCC[C@@H](C(=O)N[C@@H](CCCNC(=N)N)C(N)=O)NC(=O)CNC(=O)[C@H](CO)NC1=O [1.1 (Cyclic)] (GLTF[Nle]QYWAQ[Cba][Nle]SGKR-NH2; linker N-15 via Diglycolyl; C-terminus assumed) | 0.0024 s⁻¹ | 320000 M⁻¹ s⁻¹ | –
3 | CCCC[C@H](NC(=O)[C@H](CC1CCC1)NC(=O)[C@H](CCC(N)=O)NC(=O)[C@H](C)NC(=O)[C@H](Cc1c[nH]c2ccccc12)NC(=O)[C@H](Cc1ccc(O)cc1)NC(=O)[C@H](CCC(N)=O)NC(=O)[C@H](CCCC)NC(=O)[C@H](Cc1ccccc1)NC(=O)[C@@H](NC(=O)[C@H](CC(C)C)NC(=O)CNC(C)=O)[C@@H](C)O)C(=O)N[C@@H](CO)C(=O)NCC(=O)N[C@@H](CCCNC(=N)N)C(N)=O [1.1 (Linear)] (Ac-GLTF[Nle]QYWAQ[Cba][Nle]SGR-NH2; N-terminus and C-terminus assumed) | 0.0022 s⁻¹ | 73000 M⁻¹ s⁻¹ | 40 fold
4 | CCCC[C@H](NC(=O)[C@H](CC(C)C)NC(=O)[C@H](CCC(N)=O)NC(=O)[C@H](C)NC(=O)[C@H](Cc1c[nH]c2ccccc12)NC(=O)[C@H](Cc1ccc(O)cc1)NC(=O)[C@H](CCC(N)=O)NC(=O)[C@H](CCCC)NC(=O)[C@H](Cc1ccccc1)NC(=O)[C@@H](NC(=O)[C@H](CC(C)C)NC(=O)CNC(=O)CN(CCNC(=O)CN(CCNC(=O)CN(CCNC(=O)CN(CCNC(=O)[C@H](CCCNC(=N)N)NC(=O)COCCOCCNC(=O)[C@H](CCCNC(=N)N)NC(=O)CN(CCNC(=O)CN(CCNC(=O)CN(CCNC(=O)CN(CCNC(=O)CN(CCNC(=O)CN(CCNC(=O)CN(CCNC(=O)CN(CCNC(=O)[C@H](CCCNC(=N)N)NC(C)=O)C(=O)Cn1cnc2c(=O)[nH]c(N)nc21)C(=O)Cn1ccc(N)nc1=O)C(=O)Cn1ccc(N)nc1=O)C(=O)Cn1cnc2c(=O)[nH]c(N)nc21)C(=O)Cn1cc(C)c(=O)[nH]c1=O)C(=O)Cn1cnc2c(N)ncnc21)C(=O)Cn1cnc2c(=O)[nH]c(N)nc21)C(=O)Cn1cnc2c(=O)[nH]c(N)nc21)C(=O)Cn1ccc(N)nc1=O)C(=O)Cn1ccc(N)nc1=O)C(=O)Cn1cc(C)c(=O)[nH]c1=O)C(=O)Cn1cnc2c(N)ncnc21)[C@@H](C)O)C(=O)N[C@@H](CO)C(=O)NCC(=O)NCCN(CC(=O)NCCN(CC(=O)NCCN(CC(=O)NCCN(CC(=O)N[C@@H](CCCNC(=N)N)C(N)=O)C(=O)Cn1ccc(N)nc1=O)C(=O)Cn1cnc2c(=O)[nH]c(N)nc21)C(=O)Cn1cnc2c(=O)[nH]c(N)nc21)C(=O)Cn1ccc(N)nc1=O [2.1 (PNA)] | 0.0021 s⁻¹ | 1e+06 M⁻¹ s⁻¹ | –
5 | CCCC[C@H](NC(=O)[C@H](CC1CCC1)NC(=O)[C@H](CCC(N)=O)NC(=O)[C@H](C)NC(=O)[C@H](Cc1c[nH]c2ccccc12)NC(=O)[C@H](Cc1ccc(O)cc1)NC(=O)[C@H](CCC(N)=O)NC(=O)[C@H](CCCC)NC(=O)[C@H](Cc1ccccc1)NC(=O)[C@@H](NC(=O)[C@H](CC(C)C)NC(=O)CNC(=O)CN(CCNC(=O)CN(CCNC(=O)CN(CCNC(=O)CN(CCNC(=O)[C@H](CCCNC(=N)N)NC(=O)COCCOCCNC(=O)[C@H](CCCNC(=N)N)NC(=O)CN(CCNC(=O)CN(CCNC(=O)CN(CCNC(=O)CN(CCNC(=O)CN(CCNC(=O)CN(CCNC(=O)CN(CCNC(=O)CN(CCNC(=O)[C@H](CCCNC(=N)N)NC(C)=O)C(=O)Cn1cnc2c(=O)[nH]c(N)nc21)C(=O)Cn1ccc(N)nc1=O)C(=O)Cn1ccc(N)nc1=O)C(=O)Cn1cnc2c(=O)[nH]c(N)nc21)C(=O)Cn1cc(C)c(=O)[nH]c1=O)C(=O)Cn1cnc2c(N)ncnc21)C(=O)Cn1cnc2c(=O)[nH]c(N)nc21)C(=O)Cn1cnc2c(=O)[nH]c(N)nc21)C(=O)Cn1ccc(N)nc1=O)C(=O)Cn1ccc(N)nc1=O)C(=O)Cn1cc(C)c(=O)[nH]c1=O)C(=O)Cn1cnc2c(N)ncnc21)[C@@H](C)O)C(=O)N[C@@H](CO)C(=O)NCC(=O)NCCN(CC(=O)NCCN(CC(=O)NCCN(CC(=O)NCCN(CC(=O)N[C@@H](CCCNC(=N)N)C(N)=O)C(=O)Cn1ccc(N)nc1=O)C(=O)Cn1cnc2c(=O)[nH]c(N)nc21)C(=O)Cn1cnc2c(=O)[nH]c(N)nc21)C(=O)Cn1ccc(N)nc1=O [1.1 (PNA)] | 0.0014 s⁻¹ | 1.9e+06 M⁻¹ s⁻¹ | –
6 | CCCC[C@H](NC(=O)[C@H](CC1CCC1)NC(=O)[C@H](CCC(N)=O)NC(=O)[C@H](C)NC(=O)[C@H](Cc1c[nH]c2ccccc12)NC(=O)[C@H](Cc1ccc(O)cc1)NC(=O)[C@H](CCC(N)=O)NC(=O)[C@H](CCCC)NC(=O)[C@H](Cc1ccc(F)c(F)c1)NC(=O)[C@@H](NC(=O)[C@H](CC(C)C)NC(=O)CNC(=O)CN(CCNC(=O)CN(CCNC(=O)CN(CCNC(=O)CN(CCNC(=O)[C@H](CCCNC(=N)N)NC(=O)COCCOCCNC(=O)[C@H](CCCNC(=N)N)NC(=O)CN(CCNC(=O)CN(CCNC(=O)CN(CCNC(=O)CN(CCNC(=O)CN(CCNC(=O)CN(CCNC(=O)CN(CCNC(=O)CN(CCNC(=O)[C@H](CCCNC(=N)N)NC(C)=O)C(=O)Cn1cnc2c(=O)[nH]c(N)nc21)C(=O)Cn1ccc(N)nc1=O)C(=O)Cn1ccc(N)nc1=O)C(=O)Cn1cnc2c(=O)[nH]c(N)nc21)C(=O)Cn1cc(C)c(=O)[nH]c1=O)C(=O)Cn1cnc2c(N)ncnc21)C(=O)Cn1cnc2c(=O)[nH]c(N)nc21)C(=O)Cn1cnc2c(=O)[nH]c(N)nc21)C(=O)Cn1ccc(N)nc1=O)C(=O)Cn1ccc(N)nc1=O)C(=O)Cn1cc(C)c(=O)[nH]c1=O)C(=O)Cn1cnc2c(N)ncnc21)[C@@H](C)O)C(=O)N[C@@H](CO)C(=O)NCC(=O)NCCN(CC(=O)NCCN(CC(=O)NCCN(CC(=O)NCCN(CC(=O)N[C@@H](CCCNC(=N)N)C(N)=O)C(=O)Cn1ccc(N)nc1=O)C(=O)Cn1cnc2c(=O)[nH]c(N)nc21)C(=O)Cn1cnc2c(=O)[nH]c(N)nc21)C(=O)Cn1ccc(N)nc1=O [1.2 (PNA)] | 0.002 s⁻¹ | 1.2e+06 M⁻¹ s⁻¹ | –
